Reference: PMC10258898, “Discovery of Novel Hydroxyimine-Tethered Benzenesulfonamides as Potential Human Carbonic Anhydrase IX/XII Inhibitors” (ACS Medicinal Chemistry Letters, 2023)
Where two headings read alike, the source gives them in different places.

What was measured:
[1] = molecular target: hCA IX (Homo sapiens, UniProt Q16790); experiment: Stopped-flow CO2 hydrase assay, hCA IX inhibition
Method: (§1) as indicator, working at the absorbance maximum of 557 nm, with 20 mM Hepes (pH 7.5) as
(§2) buffer, and 20 mM Na2SO4 (for maintaining constant the ionic strength), following the initial
(§3) have been used for determining the initial velocity. The uncatalyzed rates were determined in
(§4) the same manner and subtracted from the total observed rates. Stock solutions of inhibitor
(§5) (0.1 mM) were prepared in distilled−deionized water and dilutions up to 0.01 nM were done
(§6) thereafter with the assay buffer. Inhibitor and enzyme solutions were preincubated together for 15 min at room temperature prior to assay, in order to allow for the formation of the E−I complex. The inhibition constants were subsequently obtained by nonlinear least-squares
(§7) methods using PRISM 3 and the Cheng−Prusoff equation, as reported earlier, and represent
(§8) the mean from at least three different determinations. All CA isofoms were recombinant ones
(§9) obtained in-house as reported earlier2,3.

[2] = molecular target: hCA XII (Homo sapiens, UniProt O43570); experiment: Stopped-flow CO2 hydrase assay, hCA XII inhibition; conditions: read-out: Ki (nM) hCA XII, mean from 3 different assays, errors ±5–10%
Method: as §1, §2, §3, §4, §5, §6, §7, §8, §9

[3] = read-out: Ki (nM) hCA IX, mean from 3 different assays, errors ±5–10%, stopped-flow CO2 hydrase assay

hCA XII, sequence (O43570 25-354): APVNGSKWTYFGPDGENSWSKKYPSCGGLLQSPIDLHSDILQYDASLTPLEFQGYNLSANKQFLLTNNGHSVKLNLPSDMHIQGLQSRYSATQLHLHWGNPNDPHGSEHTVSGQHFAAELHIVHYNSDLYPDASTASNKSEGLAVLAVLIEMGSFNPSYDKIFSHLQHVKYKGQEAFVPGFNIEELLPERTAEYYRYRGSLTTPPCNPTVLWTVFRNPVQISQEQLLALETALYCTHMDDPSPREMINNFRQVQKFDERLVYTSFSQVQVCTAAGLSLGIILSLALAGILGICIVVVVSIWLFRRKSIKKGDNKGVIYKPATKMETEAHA

| Ki [1, 3] | melting point | Ki [1] | Ki [2] | SMILES |
| --- | --- | --- | --- | --- |
| 110 nM | 310 to 311 °C | – | – | NS(=O)(=O)c1ccc(N2CCN(/C(=N/O)c3ccncc3)CC2)cc1 [Compound 27] |
| 1180 nM | 320 to 321 °C | – | – | NS(=O)(=O)c1ccc(N2CCN(/C(=N/O)c3ccc(O)cc3)CC2)cc1 [Compound 28] |
| 121 nM | – | – | – | NS(=O)(=O)c1ccc(N2CCN(/C(=N/O)c3ccccc3)CC2)cc1 [Compound 29] |
| – | 321 °C | 43 nM | – | NS(=O)(=O)c1ccc(N2CCN(C(=NO)c3ccc(Cl)cc3)CC2)cc1 [Compound 30] |
| 739 nM | 310 to 311 °C | – | – | COc1ccc(/C(=N\O)N2CCN(c3ccc(S(N)(=O)=O)cc3)CC2)cc1 [Compound 31] |
| 912 nM | 302 to 303 °C | – | > 10000 nM | NS(=O)(=O)c1ccc(N2CCN(/C(=N/O)c3ccc([N+](=O)[O-])cc3)CC2)cc1 [Compound 32] |
| 1340 nM | 263 °C | – | – | NS(=O)(=O)c1ccc(N2CCN(/C(=N/O)c3ccc(F)cc3)CC2)cc1 [Compound 33] |
| > 10000 nM | 263 to 264 °C | – | – | Cc1ccc(/C(=N\O)N2CCN(c3ccc(S(N)(=O)=O)cc3)CC2)cc1 [Compound 34] |
